Reference: patent US20060252740A1 (priority 2005, published 2006)

Key:
[1] = system: patients with advanced malignancies incl. metastatic melanoma; conditions: cited from earlier work
breast cancer cells = conditions: cited from earlier work
[2] = system: adult patients with solid tumors; conditions: cited from earlier work
[3] = Stability of diluted drug product; type: physicochemical; conditions: drug product at a dilution of 1:7, room temperature
[4] = system: SKBr3 breast cancer cells; conditions: cited from earlier work
[5] = system: diffuse GFP positive MM lesions; conditions: SCID/NOD mice; cited from earlier work
NSCLC cells = conditions: cited from earlier work
[6] = system: patients with advanced solid tumors; conditions: cited from earlier work
[7] = system: colon adenocarcinoma cells; conditions: cited from earlier work
plasma protein = experiment: Plasma protein binding, in vitro assays using human blood; type: in vitro ADME
[8] = system: patients with solid tumors and lymphomas; conditions: cited from earlier work
[9] = Dose limiting toxicity and drug-related toxicities in dose-escalating clinical trial; type: in vivo, human; conditions: twice weekly for two out of three weeks (Days 1, 4, 8, 11; 21 day cycle)
Description: Eighteen patients were treated in accordance with this protocol.

leukemia cells = conditions: cited from earlier work
clinical = experiment: clinical
Description: PK assessments included the following tests. […] The total number of PK samples collected was approximately 115 mL of whole blood (7-8 tablespoons). If a patient experienced a potentially drug-related SAE, additional PK samples were collected. Blood was drawn from the contralateral arm to the infusion site using an indwelling catheter to avoid multiple needle sticks. […] The blood tube was inverted several times and the tube placed in wet ice immediately pending separation of the plasma. If a catheter was used for blood collection, the fluid in the catheter was completely withdrawn prior to each sample collection and discarded. Plasma samples were kept on wet ice during collection and centrifugation. Plasma samples were split into two cryovials prior to freezing at −70° C.

[10] = highest dose level (450 mg/m^2)
[11] = Cohorts 1 & 2, 17-AAG 100 mg/m^2, Max
[12] = Cohorts 1 & 2, 17-AAG 100 mg/m^2, Mean
[13] = Cohorts 1 & 2, 17-AAG 100 mg/m^2, Median
[14] = Cohorts 1 & 2, 17-AAG 100 mg/m^2, Min
[15] = Cohorts 3 & 4, 17-AAG 150 mg/m^2, Max

In the case of `C=CCNC1=C2C[C@@H](C)C[C@H](OC)[C@H](O)[C@@H](C)/C=C(\C)[C@H](OC(N)=O)[C@@H](OC)/C=C\C=C(/C)C(=O)NC(=CC1=O)C2=O` [17-AAG, 17-Allylamino-17-demethoxygeldanamycin], the “mean peak plasma level” value ([1]; 450 mg/m^2) is listed as 8,998 μg/L, the “mean volume of distribution” value ([1]; 450 mg/m^2) is listed as 142.6 L and the “induction of the co-chaperone protein Hsp70” value ([1]; 320-450 mg/m^2/week) is listed as 8 of 9. For the same molecule, the “CDK4 depletion in tumor biopsies” value ([1]; at 24 hours) was 8 out of 9, the “Raf-1 depletion in tumor biopsies” value ([1]; at 24 hours) was 4 out of 6 and the “period plasma 17-AAG concentrations remained above 120 nM” value [1, 10] was over 24 h. The “plasma 17-AAG concentrations” value [1, 10] was “exceeded 10 μM”, the “complete or partial responses” value ([1]; in vivo) was “No complete or partial responses” and the “dose at which dose limiting toxicity was observed” value ([1]; once weekly, grade ¾ elevation of AST) was 450 mg/m^2/week. The stable disease ([1]; patients treated at 320-450 mg/m^2) was “two showed radiologically documented long term stable disease”, the “effect of exposure on client proteins” value (breast cancer cells) was “depletion of steroid receptors” and the “maximum tolerated dose (MTD) and recommended Phase 2 dose” value ([2]; daily for 5 days every 3 weeks) was 40 mg/m^2. The dose limiting toxicity ([2]; daily x5 schedule) was “reversible hepatotoxicity”, the objective tumor responses ([2]; doses up to 110 mg/m^2) was “No objective tumor responses” and the VZ ([2]; in vivo) was 93 L/m^2. The Clearance ([2]; patients treated at 56 mg/m^2) was 19.9 L/h/m^2, the “average AUC” value ([2]; patients treated at 56 mg/m^2) was 6,708 nM*h and the stability after dilution [3] was “up to 10 hours”. The “effect of exposure on client proteins” value [4] was “depletion of erbB2 and destabilization of Raf-1 and mutant p53”, the survival analysis [5] was “significantly prolonged median overall survival” and the “effect of exposure on client proteins” value (NSCLC cells) was “depletion of erbB1 (EGFR) and erbB2 (p185) levels”. For the same molecule, the dose limiting toxicities ([6]; at the 80 mg/m^2 dose, daily x5) was “hepatitis, abdominal pain, nausea, dyspnea”, the Cmax ([6]; read-out: plasma Cmax, 80 mg/m^2 dose level) was 2700 nM and the “effect of exposure on client proteins” value [7] was “depletion of Raf-1, c-Akt, and Erk1/2”. The “protein bound in plasma” value (plasma protein) was “approximately 95%”, the “levels of Hsp90 client proteins” value ([8]; during therapy) was “unchanged during therapy” and the objective tumor responses ([8]; to date) was “No objective tumor responses”. The MTD ([8]; weekly 17-AAG, 3 weeks out of a 4 week cycle) was 308 mg/m^2, the “dose reached without significant toxicity” value ([8]; weekly dosing) was 112 mg/m^2 and the “17-AAG dose employed without reaching dose limiting toxicity (DLT) in any treated patient” value [9] was 275 mg/m^2. The “effect of exposure on client proteins” value (leukemia cells) was “down-regulation of intracellular Bcr-Abl and c-Raf proteins and reduction of Akt kinase activity”, the AUCext (clinical; [11]) was 10.80% and the AUCextra (clinical; [11]) was 608.6 ng·h/mL. The AUClast (clinical; [11]) was 7,248.8 ng/mL * h, the AUCtotal (clinical; [11]) was 7,857.4 ng/mL * h and the Cmax (clinical; [11]) was 2,620 ng/mL. It also gave an MRT (clinical; [11]) of 6.04 h, a Tmax (clinical; [11]) of 3 h and a t1/2 (clinical; [11]) of 5.16 h. For the same molecule, the AUCext (clinical; [12]) was 6%, the AUCtotal (clinical; [12]) was 3,805 ng/mL * h and the Clearance (clinical; [12]) was 28.63 L/h/m^2. It also gave a Vss (clinical; [12]) of 93.88 L/m^2, a Vz (clinical; [12]) of 104.58 L/m^2 and an AUCext (clinical; [13]) of 6.10%. The AUCtotal (clinical; [13]) was 3,513.8 ng/mL * h, the Clearance (clinical; [13]) was 28.46 L/h/m^2 and the Vss (clinical; [13]) was 79.65 L/m^2. The Vz (clinical; [13]) was 99.17 L/m^2, the AUCext (clinical; [14]) was 2.54% and the AUCextra (clinical; [14]) was 87.9 ng·h/mL. For the same molecule, the AUClast (clinical; [14]) was 2,231.7 ng/mL * h, the AUCtotal (clinical; [14]) was 2,380.5 ng/mL * h and the Cmax (clinical; [14]) was 755 ng/mL. The MRT (clinical; [14]) was 2.37 h, the Tmax (clinical; [14]) was 0.5 h and the t1/2 (clinical; [14]) was 1.72 h. The AUCext (clinical; [15]) was 10.5%, the AUCextra (clinical; [15]) was 595 ng·h/mL and the AUClast (clinical; [15]) was 17,650 ng/mL * h. The AUCtotal (clinical; [15]) was 18,246 ng/mL * h, the Cmax (clinical; [15]) was 9,540 ng/mL and the MRT (clinical; [15]) was 6.0 h.
